Test results published in US10538520B2, “Benzamide and nicotinamide compounds and methods of using same” (OncoTartis Inc., priority 2013, dated 2020).
pIC50: −log10 of the molar value.

Tests used:
MV4-11 = assay: Cytotoxicity towards MV4-11 cell line; type: cell-based; details: Homo sapiens
Experimental: (§1) In various embodiments, the compounds of the disclosure are those in which show IC50 values in cytotoxicity experiments towards cells lines MV4-11 and U937 of >20 μM, 10-20 μM, 5-10 μM, 1-5 μM, or <1 μM.
(§2) The IC50 is divided into 5 categories: A<1 μM, B 1-5 μM, C 5-10 μM, D 10-20 μM, and E>20 μM.

U-937 = assay: Cytotoxicity towards U-937 cell line; type: cell-based; details: Homo sapiens
Experimental: as §1, §2

MV4-11 cells [1] = assay: Systemic (disseminated) MV4-11 model of AML in SCID mice, survival; type: in vivo; details: 6 days per week, days 4-58, IV MV4-11 (FIG. 3)
Experimental: FIG. 3. Example of survival of SCID mice inoculated via IV route with MV4-11 cells and treated via oral gavage with vehicle control, TT-01901 at 100 mg/kg and TT-03586 at 50 mg/kg 6 days per week on days 4-58. Mice were sacrificed according to IACUC regulations after losing more than 20% of body weight or becoming moribund and paralyzed.
(§3) Efficacy of compounds was tested in two types of xenograft models of leukemia: subcutaneous (SC) (development of tumors after SC inoculation of cells) and systemic and disseminated (development of tumors on different organs after intravenous inoculation of cells). MV4-11 cells (ATCC CRL-9591) of acute myelomonocytic leukemia (AML) were used.
In this model leukemia cells either from patient of from cell lines are administered intravenously into mice and leukemia cells are engrafted into blood and blood-forming organs (bone marrow, thymus, spleen).
In systemic model of AML SCID mice were irradiated with 3 Gy and inoculated intravenously with MV4-11 cells 24 h after irradiation. Mice were treated with vehicle control, TT-01901 and TT-03586 during days 4-58 (FIG. 3). 30 days after cells implantation mice treated with vehicle were gradually becoming sick, scruffy and were losing weight. […] The ratio of survival of treated mice versus survival of control mice in percent (T/C) was calculated using formula: T/C %=average survival time for treated mice/average survival time for control mice*100. Increase in the survival (IS) was calculated using formula: IS=(average survival time of treated mice−average survival time of control mice)/average survival time of control mice*100. […] The corresponding increase in survival was 35% and 48%.

MV4-11 cells [2] = assay: Subcutaneous MV4-11 xenograft model of AML in SCID mice, tumor growth; type: in vivo; details: for maximum suppression of tumor growth (STG %): 6 days per week; for effect on tumor growth: SCID mice inoculated SC with MV4-11 cells (FIGS. 1 and 2)
Experimental: FIG. 1. Example of growth of tumors in MV4-11 xenograft model of AML in SCID mice treated with vehicle control and TT-03197 at 10 mg/kg and 40 mg/kg administered intraperitoneally. Mice were treated 6 days per week as indicated on the figure. Results are Mean±SE (n=14-16).
FIG. 2. Example of growth of tumors in MV4-11 xenograft model of AML in SCID mice treated with vehicle control and TT-03203 at 10 mg/kg and 25 mg/kg administered orally. Mice were treated 6 days per weeks as indicated on the figure. Results are Mean±SE (n=17-20)
as §3
The maximum suppression of tumor growth (calculated using formula: STG %=(volume control-volume treated)/volume control*100) was 28% for mice treated with 10 mg/kg of TT-03197 and 55% for mice treated with 40 mg/kg of […] (FIG. 1). For TT-03203 the maximum STG was 27% for mice treated PO with 10 mg/kg of TT-03203 and 46% for mice treated with 25 mg/kg of TT-03203 (FIG. 2).

In the case of `O=C(NCCCn1ccnc1)c1ccc(-n2cccn2)c(C#Cc2ccccc2)c1` [TT-01901], the pIC50 (MV4-11) was greater than 6.00, the pIC50 (U-937) was greater than 6.00 and the “increase in survival (IS)” value (MV4-11 cells [1]; 100 mg/kg oral gavage) was 35%. The “survival of treated mice versus control mice (T/C %)” value (MV4-11 cells [1]; 100 mg/kg oral gavage) was 135%.

For `O=C(NCCCc1cn[nH]c1)c1ccc(-n2cccn2)c(C#Cc2ccc(F)cc2)c1` [TT-03197], the pIC50 (MV4-11) was greater than 6.00, the pIC50 (U-937) was greater than 6.00 and the “maximum suppression of tumor growth (STG %)” value (shortened to “maximum suppression … (STG %)”) (MV4-11 cells [2]; 10 mg/kg, intraperitoneally, SC MV4-11 xenograft (FIG. 1)) was 28%. For the same compound, the “effect on tumor growth” value (MV4-11 cells [2]) was “dose-dependent reduction of tumor growth”.

`O=C(NCCCc1cn[nH]c1)c1ccc(-n2cccn2)c(C#Cc2ccc(Cl)cc2)c1` [TT-03203] was tested, and the pIC50 (MV4-11) was greater than 6.00, the pIC50 (U-937) was greater than 6.00 and the “maximum suppression … (STG %)” value (MV4-11 cells [2]; 10 mg/kg PO, SC MV4-11 xenograft (FIG. 2)) was 27%. The “maximum suppression … (STG %)” value (MV4-11 cells [2]; 25 mg/kg PO, SC MV4-11 xenograft (FIG. 2)) was 46%, the “maximum suppression … (STG %)” value (MV4-11 cells [2]; 40 mg/kg, intraperitoneally, SC MV4-11 xenograft (FIG. 1)) was 55% and the “effect on tumor growth” value (MV4-11 cells [2]) was “dose-dependent reduction of tumor growth”.

`O=C(NCCCc1cn[nH]c1)c1ccc(N2CCOCC2)c(C#Cc2ccc(F)cc2)c1` [TT-03586] was tested, and the pIC50 (MV4-11) was greater than 6.00, the pIC50 (U-937) was greater than 6.00 and the “increase in survival (IS)” value (MV4-11 cells [1]; 50 mg/kg oral gavage) was 48%. For the same compound, the “survival of treated mice versus control mice (T/C %)” value (MV4-11 cells [1]; 50 mg/kg oral gavage) was 148%.

`O=C(NCCCc1cn[nH]c1)c1ccc(N2CCOC(CN3CCCCC3)C2)c(C#Cc2ccc(F)cc2)c1` (centres unmarked) [TT-03669] gave a pIC50 (MV4-11) greater than 6.00 and a pIC50 (U-937) greater than 6.00.

`C[C@@H]1CN(c2ccc(C(=O)NCCCc3cn[nH]c3)cc2C#Cc2ccc(F)cc2)C[C@H](C)O1` [TT-03670] gave a pIC50 (MV4-11) greater than 6.00 and a pIC50 (U-937) greater than 6.00.

`O=C1CN(c2ccc(C(=O)NCCCc3cn[nH]c3)cc2C#Cc2ccc(F)cc2)CCN1` [TT-03671] was tested, and the pIC50 (MV4-11) was greater than 6.00 and the pIC50 (U-937) was greater than 6.00.

For `CC1(C)CCCN(c2ccc(C(=O)NCCCc3cn[nH]c3)cc2C#Cc2ccc(F)cc2)C1` [TT-03676], the pIC50 (MV4-11) was greater than 6.00 and the pIC50 (U-937) was greater than 6.00.

`O=C(NC/C=C/c1cn[nH]c1)c1ccc(N2CCCC2)c(C#Cc2ccc(F)cc2)c1` [TT-03717] was tested, and the pIC50 (MV4-11) was greater than 6.00 and the pIC50 (U-937) was greater than 6.00.

For `C[C@@H]1CN(c2ccc(C(=O)NC/C=C/c3cn[nH]c3)cc2C#Cc2ccc(F)cc2)C[C@H](C)O1` [TT-03718], the pIC50 (MV4-11) was greater than 6.00 and the pIC50 (U-937) was greater than 6.00.

`COc1ccc(C#Cc2cc(C(=O)NCCCc3cn[nH]c3)ccc2N2CCOCC2)cn1` [TT-03720] showed a pIC50 (MV4-11) greater than 6.00 and a pIC50 (U-937) greater than 6.00.

For `NCCOCCOCCOCCN1CCN(c2ccc(C(=O)NCCCn3ccnc3)cc2C#Cc2ccc(F)cc2)CC1` [TT-03725], the pIC50 (MV4-11) was greater than 6.00 and the pIC50 (U-937) was greater than 6.00.

For `C[C@@H]1CN(c2ccc(C(=O)NCCCn3ccnc3)cc2C#Cc2ccc(F)cc2)C[C@H](C)O1` [TT-03727], the pIC50 (MV4-11) was greater than 6.00 and the pIC50 (U-937) was greater than 6.00.

`C[C@@H]1CN(c2ccc(C(=O)N3CC[C@H](O)[C@@H](n4ccnc4)CC3)cc2C#Cc2ccc(F)cc2)C[C@H](C)O1` [TT-03732] showed a pIC50 (MV4-11) greater than 6.00 and a pIC50 (U-937) of 5.30 to 6.00.

With `C[C@@H]1CN(c2ccc(C(=O)N[C@@H]3CC[C@@H](n4ccnc4)[C@@H]3O)cc2C#Cc2ccc(F)cc2)C[C@H](C)O1` [TT-03733] the pIC50 (MV4-11) was greater than 6.00 and the pIC50 (U-937) was 5.30 to 6.00.

Compound `Cc1nccn1CCCNC(=O)c1ccc(N2CCN(CCOCCOCCOCCN)CC2)c(C#Cc2ccc(F)cc2)c1` [TT-03749] has a pIC50 (MV4-11) of 5.30 to 6.00 and a pIC50 (U-937) of 4.70 to 5.00.

Work on `C[C@@H]1CN(c2ncc(C(=O)NCCCc3cn[nH]c3)cc2C#Cc2ccc(F)cc2)C[C@H](C)O1` [TT-03750] yielded a pIC50 (MV4-11) greater than 6.00 and a pIC50 (U-937) greater than 6.00.

`C[C@@H]1CN(c2ncc(C(=O)NC/C=C/c3cn[nH]c3)cc2C#Cc2ccc(F)cc2)C[C@H](C)O1` [TT-03751] was tested, and the pIC50 (MV4-11) was greater than 6.00 and the pIC50 (U-937) was greater than 6.00.

`C[C@@H]1CN(c2ncc(C(=O)NC/C=C/c3cn[nH]c3)cc2C#Cc2ccc(Cl)cc2)C[C@H](C)O1` [TT-03752] gave a pIC50 (MV4-11) greater than 6.00 and a pIC50 (U-937) greater than 6.00.

For `C[C@@H]1CN(c2ncc(C(=O)NCCCc3cn[nH]c3)cc2C#Cc2ccc(Cl)cc2)C[C@H](C)O1` [TT-03753], the pIC50 (MV4-11) was greater than 6.00 and the pIC50 (U-937) was greater than 6.00.

`C[C@@H]1CN(c2ccc(C(=O)NCCCc3cn[nH]c3)cc2C#Cc2ccc(Cl)cc2)C[C@H](C)O1` [TT-03754] showed a pIC50 (MV4-11) greater than 6.00 and a pIC50 (U-937) greater than 6.00.

`O=C1CC2CCC(CN1)N2c1ncc(C(=O)NCCCc2cn[nH]c2)cc1C#Cc1ccc(F)cc1` (centres unmarked) [TT-03765] showed a pIC50 (MV4-11) greater than 6.00 and a pIC50 (U-937) greater than 6.00.

With `O=C(NCCCc1cn[nH]c1)c1ccc(-c2cc[n+]([O-])cc2)c(C#Cc2ccc(F)cc2)c1` [TT-03773] the pIC50 (MV4-11) was greater than 6.00 and the pIC50 (U-937) was greater than 6.00.

`O=C(NCC(O)Cc1cn[nH]c1)c1cnc(N2CCOCC2)c(C#Cc2ccc(F)cc2)c1` (centres unmarked) [TT-03774] gave a pIC50 (MV4-11) greater than 6.00 and a pIC50 (U-937) of 5.30 to 6.00.

`O=C(NCCCc1cn[nH]c1)c1cnc(N2CC[S+]([O-])CC2)c(C#Cc2ccc(F)cc2)c1` [TT-03782] gave a pIC50 (MV4-11) greater than 6.00 and a pIC50 (U-937) greater than 6.00.

In the case of `O=C(NCCCc1cn[nH]c1)c1cnc(N2CCS(=O)(=O)CC2)c(C#Cc2ccc(F)cc2)c1` [TT-03783], the pIC50 (MV4-11) was greater than 6.00 and the pIC50 (U-937) was greater than 6.00.
